{"source": "patent US20100297046A1", "about": "“Compositions and Methods Related to Fructosamine-3-Kinase Inhibitors” (DYNAMIS THERAPEUTICS, INC., priority 2006, published 2010)", "key": {"3-deoxyglucosone": {"system": "3-deoxyglucosone", "experiment": "Reduction of urinary and plasma 3-deoxyglucosone in rats", "assay_type": "in vivo, rat", "details": "for Plasma 3-deoxyglucosone reduced / average reduction of urinary 3-deoxyglucosone: rats, 10 μmols intraperitoneal; for Plasma 3-deoxyglucosone reduced: plasma at end of three hours; for average reduction of urinary 3-deoxyglucosone: urine three hours after vs before, normalized to creatinine", "procedure": "Urine was collected from six rats for three hours. A plasma sample was also obtained. The animals were then given 10 μmols of either sorbitollysine, mannitollysine, or galactitollysine by intraperitoneal injection. Urine was collected for another three hours, and a plasma sample obtained at the end of the three hours.\na. 3-deoxyglucosone was measured in the samples, as described in Example 5, below, and variable volumes were normalized to creatinine. The average reduction of urinary 3-deoxyglucosone was 50% by sorbitollysine, 35% by mannitollysine and 35% by galactitollysine. Plasma 3-deoxyglucosone was reduced 40% by sorbitollysine, 58% by mannitollysine and 50% by galactitollysine.\nThree rats were treated as in b), immediately above, except meglumine (100 μmols) was injected intraperitoneally instead of the above-mentioned lysine derivatives. Three hours after the injection the average 3-deoxyglucosone concentrations in the urine were decreased 42%.\n3DG was measured by GC-MS after deionization of the sample. 3DG was derivatized with a 10-fold excess of diaminonaphthalene in PBS. Ethyl acetate extraction gave a salt free fraction which was converted to the trimethyl silyl ethers with Tri-Sil (Pierce). Analysis was performed on a Hewlett-Packard 5890 selected ion monitoring GC-MS system. GC was performed on a fused silica capillary column (DB-5.25 mx. […]) using the following temperature program: injector port 250° C., initial column temperature 150° C. which is held for 1 minute, then increased to 290° C. at 16° C./minute and held for 15 minutes. Quantitation of 3DG employed selected ion monitoring using an internal standard of U-13C-3DG."}, "diabetic rats": {"system": "diabetic rats", "experiment": "Muscle strength / resistance to pull in alert restrained diabetic rats", "assay_type": "in vivo, rat", "details": "diabetic rats treated vs not treated; preliminary data", "text": "The present invention also encompasses methods for prevention of hair loss associated with or mediated by loss of microcirculation and/or loss of neuro-innervation in populations of aging, sclerodermic and/or in diabetic individuals. This is because 3DG is a known precursor to the formation of AGEs which are known to be causally connected to the development of neuropathy. […] This supports the concept that maintenance of nerve conduction and microcirculation that supports nerve innervation is deleteriously affected not only by AGEs, but also 3DG. Similarly, where 3DG would cause blockage of the microcirculation that supports nerve innervation of the hair follicle, the hair follicle will atrophy and die, as is the case in neuropathy. Accordingly, the present invention includes methods for preventing hair loss, where such hair loss is associated with or mediated by the presence of 3DG in the skin proximal to a hair follicle/shaft.\nSkin elasticity measurements were also taken on the test subjects as described above, but without sedating the test animals before measurement. FIG. 15 illustrates skin elasticity measurements taken on the hind leg of the test subjects while the subjects were alert and being restrained by a technician.\nIn these experiments, the animals were fiercely fighting restraint and the results are different."}, "[1]": {"experiment": "Locus of 3-O-methyl sorbitollysine uptake in vivo (recovery from tissues, urine, plasma)", "parameters": "species or system rat", "procedure": "[…] Urine was collected for 3 hours, after which the rats were sacrificed. The tissues to be analyzed were removed and freeze clamped in liquid nitrogen. Perchloric acid extracts of the tissues were used for metabolite analysis. The tissues examined were taken from the brain, heart, muscle, sciatic nerve, spleen, pancreas, liver, and kidney. Plasma was also analyzed."}, "3DG": {"system": "3DG", "experiment": "Plasma 3DG levels in diabetic and non-diabetic rats treated with 3-O-methyl sorbitollysine", "assay_type": "in vivo, rat", "details": "for plasma 3DG level: 50 mg/kg body weight injections, within one week", "procedure": "A cohort of twelve diabetic rats was divided into two groups of six. The first group received saline-only injections, and the second received injections of 3-O-methyl sorbitollysine (50 mg/kg body weight) in saline solution. The same procedure was conducted on a cohort of twelve non-diabetic rats."}, "[2]": {"system": "skin of STZ-diabetic rats", "experiment": "Skin elasticity measurement (vacuum pull) in STZ-diabetic and normal rats", "assay_type": "in vivo, rat", "details": "50 mg/kg daily subcutaneous, eight weeks", "procedure": "Experiments were performed to determine the effects of DYN 12 on the loss of skin elasticity associated with diabetes. To this end, two groups of STZ-diabetic rats and two groups of normal rats were subjected to treatment with DYN 12 or saline. One group of STZ-diabetic rats (n=9) received daily subcutaneous injections of DYN 12 at 50 mg/kg for eight weeks, as did one group of normal rats (n=6). A group of control diabetic rats (n=10) and a group of normal rats (n=6) received saline instead of DYN 12. One rat was removed from the diabetic DYN 12 group after 2 weeks because its blood glucose readings were inconsistent (too low) with other diabetic rats.\nA non-invasive procedure based on CyberDERM, Inc. technology utilizing a skin elasticity measurement device was used to test the effects of DYN 12 treatment on skin elasticity. The procedure provides for non-invasive measurement of skin elasticity based upon the amount of vacuum pull required to displace skin. A suction cup probe is adhered to an area of shaved skin in order to form an airtight seal. Then, a vacuum is applied to the area of the skin inside the suction cup until the skin is displaced past a sensor located inside the probe. Accordingly, the more pressure that is required to displace the skin, the less elastic the skin is."}, "[3]": {"target": "T1, Calf skin collagen Type I (Bos taurus, UniProt P02453+P02465)", "T1 construct": "Calf skin collagen Type I (1.3 mg; Sigma); purchased Sigma; host or cells: calf skin (tissue-derived)", "T1 sequence (P02453 162-1217 limits assumed)": "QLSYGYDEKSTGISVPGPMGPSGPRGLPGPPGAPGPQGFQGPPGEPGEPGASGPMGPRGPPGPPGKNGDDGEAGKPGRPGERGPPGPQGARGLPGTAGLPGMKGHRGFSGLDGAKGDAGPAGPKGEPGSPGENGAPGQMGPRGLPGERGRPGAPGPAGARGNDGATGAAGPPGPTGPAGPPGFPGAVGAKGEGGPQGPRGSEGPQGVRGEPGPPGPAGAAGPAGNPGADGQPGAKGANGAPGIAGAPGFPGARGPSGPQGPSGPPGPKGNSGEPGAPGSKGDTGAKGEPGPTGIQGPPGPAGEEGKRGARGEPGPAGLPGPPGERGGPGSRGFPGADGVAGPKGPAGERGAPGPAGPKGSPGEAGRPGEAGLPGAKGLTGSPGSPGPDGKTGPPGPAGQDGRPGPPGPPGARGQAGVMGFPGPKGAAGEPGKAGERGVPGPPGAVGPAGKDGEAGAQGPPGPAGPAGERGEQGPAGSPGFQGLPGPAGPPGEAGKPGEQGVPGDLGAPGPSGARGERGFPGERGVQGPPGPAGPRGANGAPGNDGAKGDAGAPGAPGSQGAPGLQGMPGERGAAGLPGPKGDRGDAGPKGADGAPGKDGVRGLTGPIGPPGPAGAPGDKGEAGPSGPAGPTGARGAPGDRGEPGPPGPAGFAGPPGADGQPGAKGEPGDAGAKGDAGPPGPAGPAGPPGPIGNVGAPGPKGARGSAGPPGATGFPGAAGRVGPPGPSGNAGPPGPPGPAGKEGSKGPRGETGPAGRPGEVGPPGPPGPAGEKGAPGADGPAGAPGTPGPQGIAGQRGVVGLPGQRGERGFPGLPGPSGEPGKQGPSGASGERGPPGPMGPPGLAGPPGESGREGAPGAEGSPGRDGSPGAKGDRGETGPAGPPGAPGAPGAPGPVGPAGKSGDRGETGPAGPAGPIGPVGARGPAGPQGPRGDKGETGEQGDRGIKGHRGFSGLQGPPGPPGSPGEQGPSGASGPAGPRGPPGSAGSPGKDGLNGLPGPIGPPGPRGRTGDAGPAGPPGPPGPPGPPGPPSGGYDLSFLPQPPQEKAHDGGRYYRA", "T1 sequence (P02465 80-1117 limits assumed)": "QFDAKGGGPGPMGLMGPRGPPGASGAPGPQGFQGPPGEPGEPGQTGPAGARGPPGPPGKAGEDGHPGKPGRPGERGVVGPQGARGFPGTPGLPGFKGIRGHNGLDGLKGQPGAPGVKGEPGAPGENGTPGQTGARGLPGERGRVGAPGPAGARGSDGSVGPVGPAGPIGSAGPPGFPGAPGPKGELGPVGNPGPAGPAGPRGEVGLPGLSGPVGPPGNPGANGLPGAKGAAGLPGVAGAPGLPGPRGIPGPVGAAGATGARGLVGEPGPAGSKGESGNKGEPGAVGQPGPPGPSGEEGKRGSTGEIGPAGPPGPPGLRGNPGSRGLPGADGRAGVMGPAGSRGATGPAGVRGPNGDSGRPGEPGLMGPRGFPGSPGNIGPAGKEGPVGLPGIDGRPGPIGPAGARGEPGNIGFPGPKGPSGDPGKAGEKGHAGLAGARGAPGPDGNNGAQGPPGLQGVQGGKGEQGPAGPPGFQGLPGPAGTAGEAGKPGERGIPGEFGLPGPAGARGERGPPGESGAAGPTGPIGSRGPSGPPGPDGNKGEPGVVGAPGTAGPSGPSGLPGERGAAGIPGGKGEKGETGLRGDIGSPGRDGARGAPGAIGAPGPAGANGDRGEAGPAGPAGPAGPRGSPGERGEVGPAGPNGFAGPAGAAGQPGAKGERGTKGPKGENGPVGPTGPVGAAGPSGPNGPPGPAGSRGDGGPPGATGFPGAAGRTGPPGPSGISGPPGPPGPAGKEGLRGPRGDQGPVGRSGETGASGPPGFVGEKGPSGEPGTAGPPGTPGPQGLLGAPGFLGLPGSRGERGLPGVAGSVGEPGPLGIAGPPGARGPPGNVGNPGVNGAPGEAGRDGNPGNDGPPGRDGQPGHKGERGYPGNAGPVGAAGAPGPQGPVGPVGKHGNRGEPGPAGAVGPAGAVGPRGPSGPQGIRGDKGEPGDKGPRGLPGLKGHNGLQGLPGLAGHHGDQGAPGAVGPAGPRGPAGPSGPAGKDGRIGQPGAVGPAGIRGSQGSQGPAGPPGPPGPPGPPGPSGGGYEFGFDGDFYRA", "experiment": "Collagen crosslinking by 3DG in vitro (CNBr digestion, SDS-PAGE)", "assay_type": "biochemical", "details": "37° C., 24 hours", "procedure": "Collagen type I was treated with 3DG in the presence or absence of arginine. The samples were subjected to cyanogen bromide (CNBr) digestion, electrophoresed on a 16.5% SDS Tris-tricine gel, and then the gels were processed using silver stain techniques to visualize the proteins. Lane 1 contains molecular weight marker standards. Lanes 2 and 5 contain 10 and 20 μl of the collagen mixture following CNBr digestion. Lanes 3 and 6 contain the collagen mixture treated with 3DG and then digested with CNBr, and loaded at 10 and 20 μl, respectively. Lanes 4 and 7 contain the mixture of collagen incubated with 5 mM 3DG and 10 mM arginine and then digested with CNBr, and loaded at 10 and 20 μl, respectively.\nCollagen I was incubated in the presence or absence of 3DG in vitro. Calf skin collagen Type I (1.3 mg; Sigma) was incubated in 20 mM Na-phosphate buffer, pH 7.25, either alone, with 5 mM 3DG, or with 5 mM 3DG plus 10 mM arginine, in a total volume of 1 ml at 37° C. for 24 hours and then frozen and lyophilized. The residue was dissolved in 0.5 ml of 70% formic acid and cyanogen bromide was added (20:1, w/w). This solution was incubated at 30° C. for 18 hours. […] The extent of collagen crosslinking was determined by applying equal volumes of sample and analyzing by SDS-PAGE electrophoresis (16.5% Tris-tricine gel), as determined by the effects of 3DG on the migration of collagen."}, "[4]": {"parameters": "species or system human", "details": "in vivo", "procedure": "Volunteers spent two days on a fructoselysine-free diet and then consumed 22.5 g of the food product prepared as described herein, thus effectively receiving a 2 gram dose of fructoselysine. Urine was collected at 2 hour intervals for 14 hours and a final collection was made at 24 hours. FL was measured by HPLC with a Waters 996 diode Array using a Waters C18 Free Amino Acid column at 46° C. and a gradient elution system of acetonitrile-methyl alcohol-water (45:15:40) into acetonitrile-sodium acetate-water (6:2:92) at 1 ml/min. Quantitation employed an internal standard of meglumine. 3DF was measured by HPLC after deionization of the sample. Analyses were performed on a Dionex DX-500 HPLC system employing a PA1 column (Dionex) and eluting with 32 mM sodium hydroxide at 1 ml/min. Quantitation was performed from standard curves obtained daily with synthetic 3DF. 3DG was measured by GC-MS after deionization of the sample. 3DG was derivatized with a 10-fold excess of diaminonaphthalene in PBS. Ethyl acetate extraction gave a salt free fraction which was converted to the trimethyl silyl ethers with Tri-Sil (Pierce). Analysis was performed on a Hewlett-Packard 5890 selected ion monitoring GC-MS system. […] Quantitation of 3DG employed selected ion monitoring using an internal standard of U-13C-3DG."}, "mouse mesangial cells": {"system": "mouse mesangial cells", "experiment": "Type IV collagen production in kidney cells in vitro", "assay_type": "cell-based", "procedure": "Type IV collagen production was measured in mouse mesangial cells. Controls (grown with […]) produced 300 ng of Type IV collagen per 10,000 cells, whereas fructoselysine treated cells (5 or 10 mM fructoselysine with 10 mM glucose) produced 560 and 1100 ng/10,000 cells."}}, "note": "“And” between values parts separate entries of the source, which are not always exact repeats. Equal values may be shown once."}
{"smiles": "N[C@@H](CCCCNC[C@H](O)[C@@H](O)[C@H](O)[C@H](O)CO)C(=O)O", "note": "[sorbitollysine]", "values": [{"measurement": "Plasma 3-deoxyglucosone reduced", "setting": "3-deoxyglucosone", "result": 40, "unit": "%"}, {"measurement": "average reduction of urinary 3-deoxyglucosone", "setting": "3-deoxyglucosone", "result": 50, "unit": "%"}]}
{"smiles": "N[C@@H](CCCCNC[C@H](O)[C@@H](O)[C@@H](O)[C@H](O)CO)C(=O)O", "note": "[galactitollysine]", "values": [{"measurement": "Plasma 3-deoxyglucosone reduced", "setting": "3-deoxyglucosone", "result": 50, "unit": "%"}, {"measurement": "average reduction of urinary 3-deoxyglucosone", "setting": "3-deoxyglucosone", "result": 35, "unit": "%"}]}
{"smiles": "CO[C@@H]([C@H](O)[C@H](O)CO)[C@@H](O)CNCCCC[C@H](N)C(=O)O", "note": "[DYN 12, 3-O-methylsorbitollysine]", "values": [{"measurement": "muscle strength measured while alert", "setting": "diabetic rats", "result": "stronger muscle strength"}, {"measurement": "nmols 3OMeSL in kidneys", "setting": "[1]; 13500 nmols injected intraperitoneally, sacrificed after 3 hours, one line per rat, listed as 3OMeSL", "result": "8155 nmols and 3880 nmols and 10071 nmols and 6582 nmols and 5373 nmols and 4833 nmols"}, {"measurement": "Nmols 3OMeSL in urine", "setting": "[1]; 13500 nmols injected intraperitoneally, urine collected 3 hours, one line per rat (Rat # 2084-2089), listed as 3OMeSL", "result": "4200 nmols and 1355 nmols and 2940 nmols and 1675 nmols and 1778 nmols and 2360 nmols"}, {"measurement": "presence in urine and plasma", "setting": "[1]; 3 hours after ip injection", "result": "The urine also contained 3-O-methyl sorbitollysine, but plasma did not"}, {"measurement": "tissue extracts found to contain the compound", "setting": "[1]; brain, heart, muscle, sciatic nerve, spleen, pancreas, liver, kidney examined 3 hours after ip injection", "result": "The only tissue extract found to contain 3-O-methyl sorbitollysine was that of the kidney"}, {"measurement": "% 3OMeSL recovered (percentage of the injected dose recovered from urine and kidney)", "setting": "[1]; urine plus kidneys, one line per rat, listed as 3OMeSL", "result": "91.5% and 38.8% and 96.4% and 61.2% and 53.0% and 53.3%"}, {"measurement": "total 3OMeSL recovered", "setting": "[1]; urine plus kidneys, one line per rat, listed as 3OMeSL, in nmol", "result": "12355 and 5235 and 13011 and 8257 and 7151 and 7193"}, {"measurement": "% Reduction of plasma 3DG vs saline only", "setting": "3DG; Diabetic rats", "result": 53, "unit": "%"}, {"measurement": "plasma 3DG level", "setting": "3DG; Diabetic rats", "result": "0.44 ± 0.10", "unit": "µM"}, {"measurement": "% Reduction of plasma 3DG vs saline only", "setting": "3DG; Non-diabetic rats", "result": 43, "unit": "%"}, {"measurement": "plasma 3DG level", "setting": "3DG; Non-diabetic rats", "result": "0.13 ± 0.02", "unit": "µM"}, {"measurement": "amount of pressure needed to displace the skin", "setting": "[2]", "result": "3.2+/−1.2 kPA"}]}
{"smiles": "O=CC(=O)C[C@H](O)[C@H](O)CO", "note": "[3DG, 3-deoxyglucosone]", "values": [{"measurement": "collagen crosslinking (migration on SDS-PAGE)", "setting": "[3]; 5 mM 3DG", "result": "caused the collagen to migrate as if it had a higher molecular weight"}]}
{"smiles": "N=C(N)NCCC[C@H](N)C(=O)O", "note": "[arginine, reference compound]", "values": [{"measurement": "inhibition of 3DG induced collagen crosslinking", "setting": "[3]; 5 mM 3DG plus 10 mM arginine", "result": "fewer high molecular bands"}]}
{"smiles": "CNC[C@H](O)[C@@H](O)[C@H](O)[C@H](O)CO", "note": "[meglumine]", "values": [{"measurement": "average 3-deoxyglucosone concentrations in the urine decreased", "setting": "3-deoxyglucosone; three rats, 100 μmols intraperitoneal, three hours after the injection", "result": 42, "unit": "%"}]}
{"smiles": "NC(CCCCNCC(=O)C(O)C(O)C(O)CO)C(=O)O", "note": "(stereo not drawn) [fructoselysine, 1-deoxy-1-(ε-aminolysine)-fructose]", "values": [{"measurement": "time of peak 3DF excretion in urine after the bolus", "setting": "[4]", "result": "about 4 hours"}, {"measurement": "Type IV collagen production", "setting": "mouse mesangial cells; 5 mM fructoselysine with 10 mM glucose", "result": "560 ng/10,000 cells"}, {"measurement": "Type IV collagen production", "setting": "mouse mesangial cells; 10 mM fructoselysine with 10 mM glucose", "result": "1100 ng/10,000 cells"}]}
{"smiles": "N[C@@H](CCCCNC[C@@H](O)[C@@H](O)[C@H](O)[C@H](O)CO)C(=O)O", "note": "[mannitollysine]", "values": [{"measurement": "Plasma 3-deoxyglucosone reduced", "setting": "3-deoxyglucosone", "result": 58, "unit": "%"}, {"measurement": "average reduction of urinary 3-deoxyglucosone", "setting": "3-deoxyglucosone", "result": 35, "unit": "%"}]}
